{"source": "patent US11786600B2", "about": "“Cliptac composition” (OTSUKA PHARMACEUTICAL CO., LTD., priority 2016, dated 2023)", "key": {"BRD4": {"biological_target": "T1, BRD4 (Homo sapiens, UniProt O60885)", "T1 construct": "host or cells: HeLa", "test": "BRD4 degradation by self-assembling CLIPTACs in HeLa cells (immunoblot)", "format": "cell-based", "details": "for BRD4 level, time course: JQ1-TCO 10 μM then Tz-thalidomide 10 μM", "method": "BRD4 presence was assessed by SDS-PAGE followed by Western Blot using a specific BRD4 antibody.\n(§1) HeLa cells (purchased from ATCC) were cultured in Eagle's Minimum Essential Medium (EMEM) supplemented with 10% FBS (Gibco, Life Technologies), 0.1% NEAA (Non-Essential Amino Acid, Gibco, Life Technologies) and 2 mM glutamine and were grown at 37° C. with 5% CO2. A375 and HCT116 cells (purchased from ATCC) were cultured in Dulbecco's Modified Eagle Medium (DMEM) supplemented with 10% FBS (Gibco, Life Technologies) and were grown at 37° C. with 5% CO2.\n(§2) The medium was removed and the cells were washed with PBS (2×). A375 and HCT116 cells were lysed with TG Lysis buffer (150 μL per well) and kept on ice for 20 min. The cell lysates were centrifuged at 14000 rpm for 10 min at 4° C. and the protein concentration was determined by a Pierce™ BCA Protein Assay Kit. Samples were normalised, separated on 4-12% NuPAGE gels (Life Technologies) and transferred onto a nitrocellulose membrane (Novex). The membrane was blocked in blocking buffer (Odyssey) at r.t. for 1 hour and subjected to immunodetection using a total ERK1/2 primary antibody (p44/42 MAPK ERK1/2, Cell Signaling Technologies®, 1:1000) and anti-actin antibody (Abcam ab6276, 1:10000) in blocking buffer, at r.t. for 1 hour. After washing 3× with a Tris-buffered saline (TBS) with 0.1% Tween-20 solution (TBST), the membrane was incubated with fluorescently labelled secondary antibody (IRDye800CW Donkey Anti-Rabbit, 1:10 000 and IRDye680RD Donkey Anti-Mouse, 1:10 000) for 1 hour at r.t. in the dark. After washing 2× with a TBS solution, the membrane was imaged on an Li-Cor Biosciences Odyssey system in the 800 nm and 700 nm channels.\nThe same procedure was followed with HeLa cells using RIPA Lysis buffer (150 μL per well) and 5% non-fat milk in TBST as blocking buffer. Immunodetection was performed using an anti-BRD4 antibody (Bethyl Laboratories, A301:985A100, 1:1000) and anti-actin antibody (Abcam ab6276, 1:10000) in 5% non-fat milk in TBST, at 4° C. for 48 hours.\n(§3) HeLa, A375 and HCT116 cells were seeded in 6-well plates at 1.5.10^5 cells/mL with 2 mL/well and allowed to attach overnight before being incubated with the appropriate compounds. TCO-ligand was added from a 1000× stock in DMSO-d6 (2 μL) to the plates. The cells were incubated at 37° C. in an atmosphere of 5% CO2 and air for 18 hours. Tz-Thalidomide was added from a 1000× stock in DMSO-d6 (2 μL) to the plates. The cells were incubated at 37° C. in an atmosphere of 5% CO2 and air for 18 hours.\n(§4) When Carfilzomib was used, the compound was added from a 1000× stock in DMSO-d6 (2 μL) 4 hours before the addition of Tz-thalidomide. For control experiments, untagged ligands were added instead of the TCO-compound and methyl-Tz-thalidomide was used instead of Tz-thalidomide. For the time course experiments, the cells were incubated for the indicated time after the addition of Tz-thalidomide and consequently lysed."}, "BRD4-1": {"biological_target": "T2, BRD4-1 (Homo sapiens, UniProt O60885)", "T2 construct": "evaluated against both domains of BRD4, BRD4-1 and BRD4-2; Reaction Biology", "test": "AlphaScreen histone peptide displacement assay, BRD4-1", "format": "binding", "excerpt": "(§5) Experiments performed on HeLa cells.\n(§6) FIG. 4: Biological evaluation of Tz-thalidomide against both domains of BRD4, BRD4-1 and BRD4-2. Biological evaluation of Tz-thalidomide (n=2) by AlphaScreen (performed by Reaction Biology)."}, "BRD4-2": {"biological_target": "T3, BRD4-2 (Homo sapiens, UniProt O60885)", "T3 construct": "evaluated against both domains of BRD4, BRD4-1 and BRD4-2; Reaction Biology", "test": "AlphaScreen histone peptide displacement assay, BRD4-2", "format": "binding", "excerpt": "as §5, §6"}, "ERK1/2 [1]": {"test_system": "ERK1/2", "test": "ERK1/2 degradation by self-assembling CLIPTACs in A375 cells (immunoblot)", "format": "cell-based", "details": "for ERK1/2 degradation, time course: Probe 1 10 μM then Tz-thalidomide 10 μM", "method": "(§7) ERK1 and 2 levels were assessed by SDS-PAGE followed by Western Blot using a total ERK1/2 antibody. […] At low concentration (0.1 μM), the level of ERK1/2 was unchanged. […] Quantitation of the signal intensities allowed calculation of a DC50 of 490 nM.\nas §1, §2, §3, §4"}, "bromodomain family": {"test_system": "bromodomain family", "test": "Thermal shift selectivity across the bromodomain family", "format": "binding", "details": "10 μM, duplicate", "method": "Finally, the selectivity profile of JQ1-TCO against the BET family was determined by thermal shift assay. […] (Liu et al. (2012) ChromoHub: a data hub for navigators of chromatin-mediated signalling. Bioinformatics 28: 2205-2206)\n(b) Selectivity of JQ1-TCO (10 μM, duplicate, thermal shift) across the bromodomain family. (c) Immunoblot for BRD4 and Actin showing JQ1-TCO concentration dependent downregulation of BRD4 protein levels. HeLa cells were treated with JQ1-TCO for 18 hours followed by treatment with Tz-thalidomide (10 μM) for 18 hours. (d) Immunoblot for BRD4 and Actin showing Tz-thalidomide concentration dependent downregulation of BRD4 protein levels. HeLa cells were treated with JQ1-TCO (10 μM) for 18 hours followed by treatment with Tz-thalidomide for 18 hours. (e) Immunoblot for BRD4 and Actin showing time-dependent downregulation of BRD4 protein levels. HeLa cells were treated with JQ1-TCO (10 μM) for 18 hours followed by treatment with Tz-thalidomide (10 μM) for the indicated time. […] HeLa cells were treated with (−)JQ1-TCO for 18 hours followed by treatment with Tz-thalidomide for 18 hours. […] HeLa cells were treated with JQ1-TCO for 18 hours followed by treatment with Methyl-Tz-thalidomide for 18 hours. […] Experiments performed on HeLa cells."}, "ERK2": {"biological_target": "T4, ERK2 (Homo sapiens, UniProt P28482)", "T4 construct": "host or cells: HCT116", "T4 sequence (P28482 whole entry)": "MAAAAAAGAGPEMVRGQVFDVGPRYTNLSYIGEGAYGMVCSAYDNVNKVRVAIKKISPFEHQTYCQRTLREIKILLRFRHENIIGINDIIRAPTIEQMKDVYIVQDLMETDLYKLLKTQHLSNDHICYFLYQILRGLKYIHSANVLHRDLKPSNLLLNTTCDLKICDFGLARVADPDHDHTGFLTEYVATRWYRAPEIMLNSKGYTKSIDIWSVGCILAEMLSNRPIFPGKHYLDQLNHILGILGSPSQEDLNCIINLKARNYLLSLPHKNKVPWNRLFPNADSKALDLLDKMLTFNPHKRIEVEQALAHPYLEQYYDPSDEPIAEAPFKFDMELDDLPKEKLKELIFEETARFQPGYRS", "test": "ERK2 degradation by self-assembling CLIPTACs in HCT116 cells (immunoblot)", "format": "cell-based", "details": "high concentrations of Probe 1 18 h then Tz-thalidomide 10 μM 18 h", "method": "as §7, §1\nThe medium was removed and the cells were washed with PBS (2×). A375 and HCT116 cells were lysed with TG Lysis buffer (150 μL per well) and kept on ice for 20 min. The cell lysates were centrifuged at 14000 rpm for 10 min at 4° C. and the protein concentration was determined by a Pierce™ BCA Protein Assay Kit. Samples were normalised, separated on 4-12% NuPAGE gels (Life Technologies) and transferred onto a nitrocellulose membrane (Novex). […]"}, "A375 cells": {"test_system": "A375 cells", "test": "Activity in A375 cells (GI50)", "format": "cell-based", "details": "Homo sapiens, A-375"}, "ERK1/2 [2]": {"test_system": "ERK1/2", "test": "ERK1/2 degradation by self-assembling CLIPTACs in A375 cells (immunoblot)", "format": "cell-based"}, "[3]": {"details": "4-hour pre-treatment with Carfilzomib (1 μM) in the CLIPTAC experiment"}}, "note": "Entries after “also recorded” stand apart in the source; their conditions may differ.", "data": [{"smiles": "Cc1sc2c(c1C)C(c1ccc(Cl)cc1)=N[C@H](CC(=O)NCCCNC(=O)OC1CC/C=C/CCC1)c1nnc(C)n1-2", "note": "(single isomer, unassigned; (-)) [(−)JQ1-TCO]", "values": [{"measurement": "BRD4 degradation", "setting": "BRD4; (−)JQ1-TCO at any concentration tested, then Tz-thalidomide 10 μM", "value": "no BRD4 degradation"}, {"measurement": "IC50", "setting": "BRD4-1", "value": "13.5 ± 0.21", "unit": "µM"}, {"measurement": "IC50", "setting": "BRD4-2", "value": "24.3 ± 0.92", "unit": "µM"}]}, {"smiles": "CC(C)C[C@H](NC(=O)[C@H](CCc1ccccc1)NC(=O)CN1CCOCC1)C(=O)N[C@@H](Cc1ccccc1)C(=O)N[C@@H](CC(C)C)C(=O)[C@@]1(C)CO1", "note": "[Carfilzomib, reference compound]", "values": [{"measurement": "BRD4 level", "setting": "BRD4; [3]", "value": "remained the same as in untreated cells"}, {"measurement": "ERK1/2 degradation", "setting": "ERK1/2 [1]; [3]", "value": "rescued"}]}, {"smiles": "Cc1sc2c(c1C)C(c1ccc(Cl)cc1)=N[C@@H](CC(=O)NCCCNC(=O)OC1CC/C=C/CCC1)c1nnc(C)n1-2", "note": "(stereo partly drawn) [JQ1-TCO, (4E)-Cyclooct-4-en-1-yl N-(3-{2-[(9S)-7-(4-chlorophenyl)-4,5,13-trimethyl-3-thia-1,8,11,12-tetraazatricyclo[8.3.0.0^2,6]trideca-2(6),4,7,10,12-pentaen-9-yl]acetamido}propyl)carbamate]", "values": [{"measurement": "BRD4 level, time course", "setting": "BRD4; after 16 hours", "value": "clearly dropped"}, {"measurement": "BRD4 level, time course", "setting": "BRD4; after 24 hours", "value": "complete degradation"}, {"measurement": "BRD4 level, time course", "setting": "BRD4; up to 8 hours", "value": "unchanged"}, {"measurement": "BRD4 degradation", "setting": "BRD4; JQ1-TCO 1 and 0.3 μM 18 h, then Tz-thalidomide 10 μM 18 h", "value": "partial degradation"}, {"measurement": "BRD4 degradation", "setting": "BRD4; JQ1-TCO 10 and 3 μM 18 h, then Tz-thalidomide 10 μM 18 h", "value": "complete degradation"}, {"measurement": "DC50", "setting": "BRD4; JQ1-TCO 18 h followed by fixed Tz-thalidomide (10 μM) 18 h, read-out: 50% degradation concentration (DC50) of BRD4", "value": 420, "unit": "nM"}, {"measurement": "BRD4 level", "setting": "BRD4; compound alone", "value": "unaffected"}, {"measurement": "IC50", "setting": "BRD4-1", "value": "0.016 ± 0.003", "unit": "µM"}, {"measurement": "IC50", "setting": "BRD4-2", "value": "0.063 ± 0.002", "unit": "µM"}, {"measurement": "Selectivity across the bromodomain family (thermal shift)", "setting": "bromodomain family", "value": "bind selectively to subfamily II"}]}, {"smiles": "C=CC(=O)Nc1ccccc1Nc1nc(Nc2ccnc(C#CCCNC(=O)OC3CC/C=C/CCC3)c2)ncc1Cl", "note": "(stereo not drawn) [Probe 1, (4E)-Cyclooct-4-en-1-yl N-(4-{4-[(5-chloro-4-{[2-(prop-2-enamido)phenyl]amino}pyrimidin-2-yl)amino]pyridin-2-yl}but-3-yn-1-yl) carbamate]", "values": [{"measurement": "ERK2 degradation", "setting": "ERK2", "value": "complete degradation"}, {"measurement": "ERK1/2 level", "setting": "ERK1/2 [1]; Probe 1 0.1 μM 18 h then Tz-thalidomide 10 μM 18 h", "value": "unchanged"}, {"measurement": "ERK1/2 degradation, time course", "setting": "ERK1/2 [1]; after 8 hours", "value": "partially"}, {"measurement": "ERK1/2 degradation, time course", "setting": "ERK1/2 [1]; after 16 hours", "value": "complete"}, {"measurement": "ERK1/2 degradation", "setting": "ERK1/2 [1]; Probe 1 0.3 and 1 μM 18 h then Tz-thalidomide 10 μM 18 h", "value": "Partial degradation"}, {"measurement": "DC50", "setting": "ERK1/2 [1]; Probe 1 18 h then Tz-thalidomide 10 μM 18 h", "value": 490, "unit": "nM"}, {"measurement": "ERK1/2 suppression", "setting": "ERK1/2 [1]; Probe 1 at higher concentrations 18 h then Tz-thalidomide 10 μM 18 h", "value": "complete"}, {"measurement": "ERK1/2 level", "setting": "ERK1/2 [1]; compound alone", "value": "unmodified"}, {"measurement": "GI50", "setting": "A375 cells", "value": "470 ± 140", "unit": "nM"}]}, {"smiles": "Cc1nnc(-c2ccc(CNC(=O)CCCCCOc3cccc4c3C(=O)N(C3CCC(=O)NC3=O)C4=O)cc2)nn1", "note": "(stereo not drawn) [Tz-thalidomide, 6-{[2-(2,6-Dioxopiperidin-3-yl)-1,3-dioxo-2,3-dihydro-1H-isoindol-4-yl]oxy}-N-{[4-(6-methyl-1,2,4,5-tetrazin-3-yl)phenyl]methyl}hexanamide]", "values": [{"measurement": "BRD4 degradation", "setting": "BRD4; JQ1-TCO 10 μM 18 h, then Tz-thalidomide 10 and 3 μM 18 h", "value": "completely degraded"}, {"measurement": "BRD4 degradation", "setting": "BRD4; JQ1-TCO 10 μM 18 h, then Tz-thalidomide at lower concentrations 18 h", "value": "partially"}, {"measurement": "BRD4 level", "setting": "BRD4; compound alone", "value": "unaffected"}, {"measurement": "ERK1/2 degradation profile", "setting": "ERK1/2 [2]; Probe 1 1 μM 4 hours then Tz-thalidomide 1 μM 18 hours", "value": "best degradation profile"}, {"measurement": "ERK1/2 degradation", "setting": "ERK1/2 [2]; Probe 1 4 h then Tz-thalidomide 0.1 and 0.3 μM", "value": "not observed"}, {"measurement": "ERK1/2 level", "setting": "ERK1/2 [1]; compound alone", "value": "unmodified"}]}, {"smiles": "Cc1nnc(-c2ccc(CNC(=O)CCCCCOc3cccc4c3C(=O)N(C3CCC(=O)N(C)C3=O)C4=O)cc2)nn1", "note": "(stereo not drawn) [methyl-Tz-thalidomide, N-{[4-(6-Methyl-1,2,4,5-tetrazin-3-yl)phenyl]methyl}-6-{[2-(1-methyl-2,6-dioxopiperidin-3-yl)-1,3-dioxo-2,3-dihydro-1H-isoindol-4-yl]oxy}hexanamide]", "values": [{"measurement": "BRD4 level", "setting": "BRD4; JQ1-TCO 10 μM then methyl-Tz-thalidomide 10 μM", "value": "remained unchanged"}, {"measurement": "BRD4 level", "setting": "BRD4; JQ1-TCO 10 μM then methyl-Tz-thalidomide 10 μM, listed as Methyl-Tz-thalidomide", "value": "no BRD4 degradation"}, {"measurement": "ERK1/2 degradation compared with Tz-thalidomide", "setting": "ERK1/2 [1]; Probe 1 18 h then methyl-Tz-thalidomide 10 μM 18 h", "value": "far less effective; also recorded: reduced ERK1/2 degradation"}]}]}
